In ChEMBL document CHEMBL3414430 (J Med Chem, 2015):
Values after ≈ are worked out from the molar mass of the structure shown. Active and inactive are the calls of the source. No cut-off for these calls is given here.

How the values were obtained:
[1] = Plasma clearance in ICR mouse; assay type: ADME, organism-based
[2] = target: Histone deacetylase 1 (Homo sapiens, UniProt Q13547)
Description: Inhibition of HDAC1 (unknown origin) using RHKK(Ac)AMC as substrate

[3] = target: T1, Histone deacetylase 8 (Homo sapiens, UniProt Q9BY41)
T1 sequence (Q9BY41 whole entry): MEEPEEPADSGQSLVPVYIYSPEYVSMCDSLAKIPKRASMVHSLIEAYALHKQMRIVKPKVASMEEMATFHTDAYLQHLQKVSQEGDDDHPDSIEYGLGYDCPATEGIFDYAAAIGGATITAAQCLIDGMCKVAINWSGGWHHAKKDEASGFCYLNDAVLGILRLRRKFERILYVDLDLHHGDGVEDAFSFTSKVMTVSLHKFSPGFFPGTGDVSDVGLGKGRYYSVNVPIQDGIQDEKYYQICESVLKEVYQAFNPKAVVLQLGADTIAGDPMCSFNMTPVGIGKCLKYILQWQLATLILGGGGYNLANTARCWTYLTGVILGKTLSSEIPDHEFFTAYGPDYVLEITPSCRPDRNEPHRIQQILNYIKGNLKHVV
Description: Inhibition of HDAC8 (unknown origin) using RHK(Ac)K(Ac)AMC as substrate

[4] = Solubility of the compound in PBS measured after overnight incubation by LYSA assay; assay type: physicochemical
[5] = Intrinsic clearance in mouse liver microsomes at 1 uM preincubated for 10 mins followed by NADPH addition measured over 30 mins by LC-MS/MS analysis; assay type: ADME; conditions: read-out: CLH
[6] = target: T2, Protein deacetylase HDAC6 (Homo sapiens, UniProt Q9UBN7)
T2 sequence (Q9UBN7 whole entry): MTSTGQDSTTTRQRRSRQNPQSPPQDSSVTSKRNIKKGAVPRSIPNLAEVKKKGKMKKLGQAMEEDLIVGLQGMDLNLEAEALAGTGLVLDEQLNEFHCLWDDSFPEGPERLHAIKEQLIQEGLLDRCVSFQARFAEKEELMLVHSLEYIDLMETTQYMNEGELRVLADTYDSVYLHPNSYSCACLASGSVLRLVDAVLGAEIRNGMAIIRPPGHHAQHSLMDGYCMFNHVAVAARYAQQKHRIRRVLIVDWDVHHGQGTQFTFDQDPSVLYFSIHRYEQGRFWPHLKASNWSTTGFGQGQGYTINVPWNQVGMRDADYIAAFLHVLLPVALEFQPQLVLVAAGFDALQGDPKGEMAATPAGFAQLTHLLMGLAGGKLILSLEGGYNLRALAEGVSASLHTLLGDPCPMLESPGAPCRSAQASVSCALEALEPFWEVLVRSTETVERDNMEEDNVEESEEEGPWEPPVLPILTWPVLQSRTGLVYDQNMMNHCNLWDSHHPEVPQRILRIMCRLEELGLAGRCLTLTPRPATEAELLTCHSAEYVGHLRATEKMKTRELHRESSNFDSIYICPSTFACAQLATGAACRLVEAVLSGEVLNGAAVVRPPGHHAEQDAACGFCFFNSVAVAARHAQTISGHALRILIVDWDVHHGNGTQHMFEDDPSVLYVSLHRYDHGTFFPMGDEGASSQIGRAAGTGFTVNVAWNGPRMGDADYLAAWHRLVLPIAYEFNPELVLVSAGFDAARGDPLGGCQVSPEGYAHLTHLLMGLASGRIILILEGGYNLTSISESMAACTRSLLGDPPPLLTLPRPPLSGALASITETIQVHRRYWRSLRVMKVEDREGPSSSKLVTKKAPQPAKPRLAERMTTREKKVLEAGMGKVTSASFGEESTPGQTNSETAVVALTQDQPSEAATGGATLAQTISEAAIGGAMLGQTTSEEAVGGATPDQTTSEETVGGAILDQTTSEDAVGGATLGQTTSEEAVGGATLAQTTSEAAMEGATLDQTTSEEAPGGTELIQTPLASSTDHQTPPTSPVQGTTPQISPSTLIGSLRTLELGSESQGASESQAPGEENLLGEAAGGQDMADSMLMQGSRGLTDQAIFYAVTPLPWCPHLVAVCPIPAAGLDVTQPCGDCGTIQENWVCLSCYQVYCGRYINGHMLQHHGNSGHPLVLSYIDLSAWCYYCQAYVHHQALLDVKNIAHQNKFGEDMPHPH
Description: Inhibition of HDAC6 (unknown origin) using RHKK(Ac)AMC as substrate

[7] = target: T2, Protein deacetylase HDAC6; remark: listed apart in the source
Description: Inhibition of HDAC6 in human A549 cells assessed as induction of tubulin acetylation after 17 to 18 hrs by ELISA

[8] = target: T3, Histone deacetylase 1/2/3/6 (Homo sapiens) (UniProt Q13547+O15379+Q9UBN7+Q92769); test: Inhibition of HDAC1/HDAC2/HDAC3 in human HeLa cells assessed as induction of p21 gene expression at 10 uM after 15 hrs by luciferase reporter gene assay; assay type: cell-based
[9] = target: T3, Histone deacetylase 1/2/3/6 (Homo sapiens); conditions: HeLa, at 10 µM
Description: Inhibition of HDAC1/HDAC2/HDAC3 in human HeLa cells assessed as induction of p21 gene expression at 10 uM after 15 hrs by luciferase reporter gene assay relative to HDAC1 inhibitor SNDX-275

[10] = target: T3, Histone deacetylase 1/2/3/6 (Homo sapiens); test: Inhibition of HDAC1/HDAC2/HDAC3 in human HeLa cells assessed as induction of p21 gene expression at 3 to 10 uM after 15 hrs by luciferase reporter gene assay; assay type: cell-based

Histone deacetylase 1, sequence (Q13547 whole entry): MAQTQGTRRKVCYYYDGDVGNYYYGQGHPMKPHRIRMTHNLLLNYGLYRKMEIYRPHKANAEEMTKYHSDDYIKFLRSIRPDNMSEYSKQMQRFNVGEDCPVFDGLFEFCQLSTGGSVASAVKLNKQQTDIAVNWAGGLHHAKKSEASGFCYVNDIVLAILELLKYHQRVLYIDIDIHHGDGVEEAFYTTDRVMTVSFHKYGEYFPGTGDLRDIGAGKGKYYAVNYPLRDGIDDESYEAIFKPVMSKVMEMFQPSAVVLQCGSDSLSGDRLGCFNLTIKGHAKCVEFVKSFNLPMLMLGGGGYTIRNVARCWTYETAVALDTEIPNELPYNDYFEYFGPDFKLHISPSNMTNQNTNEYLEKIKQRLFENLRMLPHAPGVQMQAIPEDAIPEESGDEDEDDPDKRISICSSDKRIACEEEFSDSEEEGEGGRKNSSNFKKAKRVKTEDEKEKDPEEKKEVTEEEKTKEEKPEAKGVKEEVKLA
T3 sequence (O15379 whole entry, looked up, one chain of several): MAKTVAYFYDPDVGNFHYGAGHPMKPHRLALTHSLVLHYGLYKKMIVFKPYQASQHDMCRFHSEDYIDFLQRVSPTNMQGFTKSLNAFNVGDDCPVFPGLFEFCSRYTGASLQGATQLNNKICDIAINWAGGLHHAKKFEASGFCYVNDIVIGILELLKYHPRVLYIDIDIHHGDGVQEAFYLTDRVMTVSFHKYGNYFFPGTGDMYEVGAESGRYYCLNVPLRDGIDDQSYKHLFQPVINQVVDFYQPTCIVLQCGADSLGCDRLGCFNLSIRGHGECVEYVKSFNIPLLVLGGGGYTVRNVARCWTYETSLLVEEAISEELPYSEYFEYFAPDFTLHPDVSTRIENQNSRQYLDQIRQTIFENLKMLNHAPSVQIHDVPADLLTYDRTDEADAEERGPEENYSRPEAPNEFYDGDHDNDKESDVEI
T3 sequence (Q13547 whole entry, looked up, one chain of several): as the sequence (Q13547 whole entry) above
T3 sequence (Q92769 whole entry, looked up, one chain of several): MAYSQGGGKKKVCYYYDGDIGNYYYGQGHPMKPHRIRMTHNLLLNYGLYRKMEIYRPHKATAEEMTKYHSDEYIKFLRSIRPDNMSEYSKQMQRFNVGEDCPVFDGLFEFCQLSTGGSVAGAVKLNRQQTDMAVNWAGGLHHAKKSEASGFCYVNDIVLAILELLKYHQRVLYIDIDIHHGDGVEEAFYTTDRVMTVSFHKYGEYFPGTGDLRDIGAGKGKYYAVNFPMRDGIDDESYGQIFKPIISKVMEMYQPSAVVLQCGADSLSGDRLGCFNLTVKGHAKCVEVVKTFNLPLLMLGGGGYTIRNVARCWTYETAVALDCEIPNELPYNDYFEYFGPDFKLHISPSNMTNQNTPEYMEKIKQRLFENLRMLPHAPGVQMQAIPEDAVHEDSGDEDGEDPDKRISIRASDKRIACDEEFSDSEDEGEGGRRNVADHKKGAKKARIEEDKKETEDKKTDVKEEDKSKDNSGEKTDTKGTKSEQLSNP

SMILES | clearance [1] | IC50 [2] | IC50 [3] | solubility [4] | CLint scaled at 1 µM [5] | IC50 [6] | EC50 [7] | inhibition [8] | inhibition [9] | inhibition [10]
O=C(NO)c1ccc2c(c1)C[C@H](Nc1nccc(-c3cccnc3)n1)CC2 | 5.94 L/h/kg | – | – | – | – | – | – | – | – | –
O=C(NO)c1ccc(NC2CCN(c3ccc(Cl)cc3)C2)cc1 (stereo not given) | – | 19.2 µM | 0.86 µM | < 0.001 mg/mL | 3.18 L/h/kg | 0.86 µM | – | – | – | –
CN(C)CCOc1cccc(N2CCC(Nc3ccc(C(=O)NO)cc3)C2=O)c1 (stereo not given) | – | – | – | > 0.4 mg/mL | – | – | 2 µM | – | – | –
CC1(Nc2ccc(C(=O)NO)cc2)CCN(c2ccccc2)C1=O (stereo not given) | – | > 100 µM | 0.59 µM | 0.415 mg/mL (≈ 1280 µM) | – | 0.46 µM | 2.6 µM | – | – | –
CC1(Nc2ccc(C(=O)NO)cc2)CCN(c2ccc(Cl)cc2)C1=O (stereo not given) | – | 11.2 µM | 0.41 µM | 0.006 mg/mL (≈ 16.7 µM) | – | 0.021 µM | – | Active | – | –
CC1(Nc2ccc(C(=O)NO)cc2)CCN(c2ccc3ncccc3c2)C1=O (stereo not given) | – | 6.02 µM | 0.076 µM | 0.017 mg/mL (≈ 45.2 µM) | – | 0.018 µM | – | Active | – | –
O=C(NO)c1ccc(NC2CCN(CCc3ccccc3)C2=O)cc1 (stereo not given) | – | 8.88 µM | 0.26 µM | 0.063 mg/mL (≈ 186 µM) | – | 0.24 µM | 16.6 µM | – | – | –
CN(c1ccc(C(=O)NO)cc1)C1CCN(c2ccccc2)C1=O (stereo not given) | – | > 100 µM | 8.2 µM | – | – | 48.8 µM | > 30 µM | – | inactive | –
O=C(NO)c1ccc(NC2CCN(c3ccc(Cl)c(Cl)c3)C2=O)cc1 (stereo not given) | – | 15.9 µM | 0.16 µM | < 0.001 mg/mL | – | 0.063 µM | – | – | – | –
O=C(NO)c1ccc(NC2CC(=O)N(c3ccccc3)C2)cc1 (stereo not given) | – | > 100 µM | 6.25 µM | > 0.35 mg/mL | – | 2.26 µM | 18.1 µM | – | inactive | –
C[C@@]1(Nc2ccc(C(=O)NO)cc2)CCN(c2ccc(Cl)cc2)C1=O | – | 24.5 µM | 0.59 µM | 0.034 mg/mL (≈ 94.5 µM) | – | 0.26 µM | 1.9 µM | – | – | inactive
O=C(NO)c1ccc(NC2CCN(c3ccccc3Cl)C2=O)cc1 (stereo not given) | – | 21.8 µM | 0.15 µM | 0.024 mg/mL (≈ 69.4 µM) | – | 0.36 µM | – | – | – | –
O=C(NO)c1ccc(NC2CCN(c3ccc(C(F)(F)F)cc3)C2=O)cc1 (stereo not given) | – | 26.7 µM | 0.11 µM | 0.043 mg/mL (≈ 113 µM) | – | 0.25 µM | 16.2 µM | – | – | –
CNc1ccc(C(=O)NO)cc1 | – | 52.3 µM | 0.94 µM | – | – | 1.77 µM | 19.2 µM | – | inactive | –
N#Cc1ccc(N2CCC(Nc3ccc(C(=O)NO)cc3)C2=O)cc1 (stereo not given) | – | 12.8 µM | 0.16 µM | 0.028 mg/mL (≈ 83.2 µM) | – | 0.1 µM | 3.1 µM | – | – | –
O=C(NO)c1ccc(NC2CCN(c3ccc(Cl)cc3)C2=O)c(Cl)c1 (stereo not given) | – | 29.4 µM | 22.4 µM | < 0.001 mg/mL | – | 1.07 µM | 17.4 µM | – | – | –
O=C(NO)c1ccc2c(c1)CC(Nc1nccc(-c3cccnc3)n1)CN2 (stereo not given) | 4.44 L/h/kg | 9.96 µM | – | 0.21 mg/mL (≈ 579 µM) | – | 0.012 µM | – | – | inactive | –
O=C(NO)c1ccc(OC2CCN(c3ccccc3)C2=O)cc1 (stereo not given) | – | > 100 µM | 4.92 µM | 0.203 mg/mL (≈ 650 µM) | – | 5.74 µM | > 30 µM | – | inactive | –
O=C(NO)c1ccc(NC2CCN(c3cccc(Cl)c3)C2=O)cc1 (stereo not given) | – | 12.1 µM | 0.18 µM | 0.017 mg/mL (≈ 49.2 µM) | – | 0.09 µM | – | – | – | –
CS(=O)(=O)c1ccc(N2CCC(Nc3ccc(C(=O)NO)cc3)C2=O)cc1 (stereo not given) | – | 17.1 µM | 0.12 µM | 0.097 mg/mL (≈ 249 µM) | – | 0.14 µM | – | – | – | –
O=C(NO)c1ccc(NC2CCN(c3ccc4ccccc4c3)C2=O)cc1 (stereo not given) | – | – | – | < 0.001 mg/mL | – | – | 1.1 µM | – | – | –
O=C(NO)c1ccc(NC2CCN(c3ccc(Cl)cc3)C2=O)cc1F (stereo not given) | – | – | – | < 0.001 mg/mL | – | – | 13.5 µM | – | – | –
O=C(NO)c1ccc(NC2CCN(Cc3ccccc3)C2=O)cc1 (stereo not given) | – | 11.7 µM | 0.76 µM | > 0.385 mg/mL | – | 0.51 µM | – | – | – | –
